Laboratory results as given in patent US8357117B2, “Device and method for delivering an agent into breast milk while breastfeeding” (Family Health International, priority 2008, dated 2013).

Assay: release of SDS from dried SDS-dipped non-woven disk in 10 ml syringe, water gravity fed
Type: physicochemical
Settings: non-woven dipped in 20% SDS solution, 3 mm thick disk, no excipients
Description: It was an unexpected result that, without the use of any excipients, a non-woven material could be dipped into an SDS solution to achieve significant loading and release of SDS. Specifically, a piece of soft non-woven material was dipped in a 20% solution of SDS, then dried on a drying rack. After drying, the material was hard and stiff, and felt like a piece of cardboard. It appeared unlikely that the resulting material would even be permeable to water.

- release of SDS into water: rapidly released
SMILES: CCCCCCCCCCCCOS(=O)(=O)[O-].[Na+] [SDS, sodium dodecyl sulphate]
